#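 Protocol summary: plate cells (96-well), add compound at 5 concentrations, incubate 48 h, interpolate endpoints linearly. TGI: concentration producing complete growth inhibition.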
# Columns and labels:
# Assay in all cases: NCI tumour cell line growth inhibition, 48 h
# [1] = tested on: 786-0 renal
# [2] = tested on: DU-145 prostate
# [3] = tested on: NCI/ADR-RES ovarian
# [4] = tested on: CAKI-1 renal
# [5] = tested on: MCF7 breast
# [6] = tested on: NCI-H460 lung
# [7] = tested on: SNB-75 CNS
# [8] = tested on: SK-OV-3 ovarian
# [9] = tested on: KM12 colon
# [10] = tested on: UACC-62 melanoma
# [11] = tested on: SK-MEL-2 melanoma
# [12] = tested on: RXF 393 renal
# [13] = tested on: MDA-MB-435
# [14] = tested on: NCI-H23 lung
# [15] = tested on: SW-620 colon
# [16] = tested on: UACC-257 melanoma
# [17] = tested on: PC-3 prostate
# [18] = tested on: NCI-H226 lung
# [19] = tested on: U251 CNS
# [20] = tested on: BT-549 breast
# [21] = tested on: HCT-15 colon
# [22] = tested on: TK-10 renal
# [23] = tested on: MOLT-4 leukemia
# [24] = tested on: UO-31 renal
# [25] = tested on: MDA-N
# [26] = tested on: HOP-62 NSCLC
# [27] = tested on: OVCAR-5 ovarian
# [28] = tested on: SNB-19 CNS
# [29] = tested on: HCT-116 colon
# [30] = tested on: K-562 leukemia
# [31] = tested on: OVCAR-4 ovarian
# [32] = tested on: CCRF-CEM leukemia
# [33] = tested on: SK-MEL-5 melanoma
# [34] = tested on: COLO 205 colon
# [35] = tested on: ACHN renal
# [36] = tested on: MDA-MB-231 breast
# [37] = tested on: OVCAR-3 ovarian
# [38] = tested on: LOX IMVI melanoma
# [39] = tested on: HCC-2998 colon
# [40] = tested on: HT29 colon
# [41] = tested on: SR leukemia
# [42] = tested on: SF-295 CNS
# [43] = tested on: IGROV1 ovarian
# [44] = tested on: T-47D breast
# [45] = tested on: A549 NSCLC
# [46] = tested on: SN12C renal
# [47] = tested on: SF-268 CNS
# [48] = tested on: EKVX NSCLC
# [49] = tested on: SK-MEL-28 melanoma
# [50] = tested on: OVCAR-8 ovarian
# [51] = tested on: NCI-H522 lung
# [52] = tested on: HS 578T breast
# [53] = tested on: HL-60(TB) leukemia
# [54] = tested on: RPMI-8226 leukemia
# [55] = tested on: M14 melanoma
# [56] = tested on: A498 renal
# [57] = tested on: SF-539 CNS
# [58] = tested on: MALME-3M melanoma
# [59] = tested on: HOP-92 NSCLC
structure (smiles),measurement,setting,value
COC(=O)C1CCCN1C(=O)OC(C)(C)C (stereo not given),TGI,[1],> 100 µM
same,TGI,[2],> 100 µM
same,TGI,[3],> 100 µM
same,TGI,[4],> 100 µM
same,TGI,[5],> 100 µM
same,TGI,[6],> 100 µM
same,TGI,[7],> 100 µM
same,TGI,[8],> 100 µM
same,TGI,[9],> 100 µM
same,TGI,[10],> 100 µM
same,TGI,[11],> 100 µM
same,TGI,[12],> 100 µM
same,TGI,[13],> 100 µM
same,TGI,[14],> 100 µM
same,TGI,[15],> 100 µM
same,TGI,[16],> 100 µM
same,TGI,[17],> 100 µM
same,TGI,[18],> 100 µM
same,TGI,[19],> 100 µM
same,TGI,[20],> 100 µM
same,TGI,[21],> 100 µM
same,TGI,[22],> 100 µM
same,TGI,[23],> 100 µM
same,TGI,[24],> 100 µM
same,TGI,[25],> 100 µM
same,TGI,[26],> 100 µM
same,TGI,[27],> 100 µM
same,TGI,[28],> 100 µM
same,TGI,[29],> 100 µM
same,TGI,[30],> 100 µM
same,TGI,[31],> 100 µM
same,TGI,[32],> 100 µM
same,TGI,[33],> 100 µM
same,TGI,[34],> 100 µM
same,TGI,[35],> 100 µM
same,TGI,[36],> 100 µM
same,TGI,[37],> 100 µM
same,TGI,[38],> 100 µM
same,TGI,[39],> 100 µM
same,TGI,[40],> 100 µM
same,TGI,[41],> 100 µM
same,TGI,[42],> 100 µM
same,TGI,[43],> 100 µM
same,TGI,[44],> 100 µM
same,TGI,[45],> 100 µM
same,TGI,[46],> 100 µM
same,TGI,[47],> 100 µM
same,TGI,[48],> 100 µM
same,TGI,[49],> 100 µM
COc1c(OC)c(OC)c(-c2cc(=O)c3c(OC)c(OC)c(OC)c(OC)c3o2)c(OC)c1OC,TGI,[1],37 µM
same,TGI,[2],> 100 µM
same,TGI,[3],78.9 µM
same,TGI,[4],> 100 µM
same,TGI,[6],> 100 µM
same,TGI,[50],> 100 µM
same,TGI,[7],> 100 µM
same,TGI,[51],33.8 µM
same,TGI,[8],> 100 µM
same,TGI,[10],> 100 µM
same,TGI,[11],> 100 µM
same,TGI,[12],81.2 µM
same,TGI,[13],> 100 µM
same,TGI,[14],95.7 µM
same,TGI,[15],> 100 µM
same,TGI,[52],> 100 µM
same,TGI,[16],> 100 µM
same,TGI,[18],> 100 µM
same,TGI,[53],> 100 µM
same,TGI,[19],> 100 µM
same,TGI,[20],> 100 µM
same,TGI,[21],> 100 µM
same,TGI,[22],85.3 µM
same,TGI,[23],> 100 µM
same,TGI,[54],> 100 µM
same,TGI,[24],> 100 µM
same,TGI,[55],> 100 µM
same,TGI,[25],> 100 µM
same,TGI,[26],> 100 µM
same,TGI,[27],> 100 µM
same,TGI,[28],> 100 µM
same,TGI,[56],89.1 µM
same,TGI,[29],44.9 µM
same,TGI,[30],> 100 µM
same,TGI,[31],33.7 µM
same,TGI,[32],> 100 µM
same,TGI,[33],74.9 µM
same,TGI,[34],> 100 µM
same,TGI,[35],> 100 µM
same,TGI,[57],> 100 µM
same,TGI,[36],> 100 µM
same,TGI,[37],33.5 µM
same,TGI,[38],> 100 µM
same,TGI,[39],> 100 µM
same,TGI,[40],86.4 µM
same,TGI,[41],> 100 µM
same,TGI,[42],> 100 µM
same,TGI,[58],> 100 µM
same,TGI,[43],64.2 µM
same,TGI,[44],47.9 µM
same,TGI,[59],44.9 µM
same,TGI,[45],> 100 µM
same,TGI,[46],> 100 µM
same,TGI,[47],> 100 µM
same,TGI,[48],> 100 µM
same,TGI,[49],> 100 µM
C=C(C)[C@@H]1CCC2=C(CC[C@]3(C)[C@@H]([C@@H](CCC=C(C)C)C(=O)O)[C@H](O)C[C@@]23C)[C@@]1(C)CCC(=O)O,TGI,[1],> 100 µM
same,TGI,[2],> 100 µM
same,TGI,[3],> 100 µM
same,TGI,[4],> 100 µM
same,TGI,[6],> 100 µM
same,TGI,[50],> 100 µM
same,TGI,[7],> 100 µM
same,TGI,[51],> 100 µM
same,TGI,[8],> 100 µM
same,TGI,[9],> 100 µM
same,TGI,[11],> 100 µM
same,TGI,[12],> 100 µM
same,TGI,[13],> 100 µM
same,TGI,[14],> 100 µM
same,TGI,[15],> 100 µM
same,TGI,[52],> 100 µM
same,TGI,[16],> 100 µM
same,TGI,[17],> 100 µM
same,TGI,[18],> 100 µM
same,TGI,[19],> 100 µM
same,TGI,[20],> 100 µM
same,TGI,[21],> 100 µM
same,TGI,[22],> 100 µM
same,TGI,[23],> 100 µM
same,TGI,[54],> 100 µM
same,TGI,[24],> 100 µM
same,TGI,[55],> 100 µM
same,TGI,[25],> 100 µM
same,TGI,[26],> 100 µM
same,TGI,[27],> 100 µM
same,TGI,[28],> 100 µM
same,TGI,[56],> 100 µM
same,TGI,[29],> 100 µM
same,TGI,[30],> 100 µM
same,TGI,[31],> 100 µM
same,TGI,[32],> 100 µM
same,TGI,[33],> 100 µM
same,TGI,[34],> 100 µM
same,TGI,[35],> 100 µM
same,TGI,[57],> 100 µM
same,TGI,[36],> 100 µM
same,TGI,[37],> 100 µM
same,TGI,[38],> 100 µM
same,TGI,[40],> 100 µM
same,TGI,[41],> 100 µM
same,TGI,[42],> 100 µM
same,TGI,[58],> 100 µM
same,TGI,[43],> 100 µM
same,TGI,[44],> 100 µM
same,TGI,[59],> 100 µM
same,TGI,[45],> 100 µM
same,TGI,[46],> 100 µM
same,TGI,[47],> 100 µM
same,TGI,[48],> 100 µM
same,TGI,[49],> 100 µM
C=CC(=C)CCC(Br)C(C)(C)Cl (stereo not given),TGI,[1],> 100 µM
same,TGI,[2],> 100 µM
same,TGI,[3],> 100 µM
same,TGI,[5],> 100 µM
same,TGI,[6],> 100 µM
same,TGI,[50],> 100 µM
same,TGI,[7],> 100 µM
same,TGI,[51],54.2 µM
same,TGI,[8],> 100 µM
same,TGI,[9],> 100 µM
same,TGI,[10],> 100 µM
same,TGI,[11],> 100 µM
same,TGI,[12],> 100 µM
same,TGI,[13],> 100 µM
same,TGI,[14],> 100 µM
same,TGI,[15],> 100 µM
same,TGI,[52],> 100 µM
same,TGI,[16],> 100 µM
same,TGI,[17],> 100 µM
same,TGI,[18],> 100 µM
same,TGI,[53],> 100 µM
same,TGI,[19],> 100 µM
same,TGI,[20],> 100 µM
same,TGI,[21],> 100 µM
same,TGI,[22],> 100 µM
same,TGI,[23],> 100 µM
same,TGI,[54],> 100 µM
same,TGI,[24],> 100 µM
same,TGI,[55],> 100 µM
same,TGI,[25],> 100 µM
same,TGI,[26],> 100 µM
same,TGI,[27],> 100 µM
same,TGI,[28],> 100 µM
same,TGI,[29],> 100 µM
same,TGI,[30],> 100 µM
same,TGI,[31],> 100 µM
same,TGI,[32],> 100 µM
same,TGI,[33],> 100 µM
same,TGI,[34],> 100 µM
same,TGI,[35],> 100 µM
same,TGI,[57],> 100 µM
same,TGI,[36],> 100 µM
same,TGI,[37],> 100 µM
same,TGI,[39],> 100 µM
same,TGI,[40],> 100 µM
same,TGI,[42],> 100 µM
same,TGI,[58],> 100 µM
same,TGI,[43],> 100 µM
same,TGI,[44],> 100 µM
same,TGI,[59],> 100 µM
same,TGI,[45],> 100 µM
same,TGI,[46],> 100 µM
same,TGI,[47],> 100 µM
same,TGI,[48],> 100 µM
same,TGI,[49],> 100 µM
